Data reported in patent US20110178171A1, “COMPOUNDS FOR CANCER THERAPY” (China Medical University, priority 2010, published 2011).

Experiments:
[1] = tested on: cleaved caspase-3; experiment: Immunohistochemical staining of xenograft tumors, cleaved caspase-3; format: in vivo; settings: mice treated with 30 mg/kg (FIG. 8A)
Description: (§1) Mice xenograft tissue samples were fixed in 10% formalin and embedded in paraffin. After routine rehydration, antigen retrieval and blocking, the sections were incubated in the primary antibody at 4° C. overnight. The primary antibody was recognized by the biotinylated secondary antibody and visualized by vectastain avidin-biotin complex peroxidase system (ABC kit) as well as peroxidase substrate 3,3′-diaminobenzidine kit (DAB kit).
(§2) Immunohistochemical staining was conducted using a cleaved caspase-3-specific antibody. […] Similar staining was carried our using an AR-specific antibody.

[2] = tested on: lung cancer cell line A549; experiment: MTT growth inhibition assay, A549; format: cell-based, human; settings: A549, lung adenocarcinoma
Description: (§3) The results were determined by three independent experiments.
(§4) Besides, the above assay was also conducted on gastric cancer cell line NCI-N87, liver cancer cell line HepG2 and J5, lung cancer cell line A549, and oral cancer cell line OECM-1.

[3] = tested on: AR; experiment: RT-PCR analysis of AR expression; format: cell-based, human
Description: (§5) Total RNA from LNCaP, PC3, 3T3 cells was isolated as described above. cDNA was synthesized by reverse transcription of 2 μg of total RNA using oligo(dT)12-18 and SuperScript II RNA reverse transcriptase (Invitrogen). The cDNA was then used as the template to amplify the corresponding DNA fragments by PCR using two sets of synthetic oligonucleotide primers. DNA amplification was performed by PCR with the Thermocycler 2400 (PerkinElmer Life and Analytical Sciences, Boston, Mass.) using the following parameters: 35 cycles of denaturing at 95° C. for 1 min, annealing at 60° C. for 1 min, and extension at 72° C. for 2 min. Primers used for the AR PCR amplifications are (F): 5′-ATGGTGAGCAGAGTGCCCTA-3′ (SEQ ID NO: 1) (R): 5′-GTGGTGCTGGAAGCCTCTCCT-3′ (SEQ ID NO: 2) PSA (F) 5′-GGTGACCAAGTTCATGCTGTG-3′ (SEQ ID NO: 3) (R) 5′-GTGTCCTTGATCCACTTCCG-3′ (SEQ ID NO: 4) products were separated on 2% agarose gels, stained with ethidium bromide, and visualized using the Fluor Chem imaging system (Alpha InnoTech, San Leandro, Calif.), and levels of glyceraldehyde-3-phosphate dehydrogenase were used as the control.
(§6) RT-PCR was conducted to examine the effect of Z-K8 on several human cancer cells. Briefly, the cells were treated with Z-K8 (0.5 μM to 2 μM) or Luteolin (as a positive control) for 24 h. […]

[4] = tested on: AR; experiment: Immunohistochemical staining of xenograft tumors, AR; format: in vivo; settings: mice treated with 30 mg/kg (FIG. 8B)
Description: as §1, §2

[5] = tested on: LNCaP cells; experiment: Cell cycle analysis by flow cytometry; format: cell-based, human; settings: 24 h
Description: The cell cycle was determined by flow cytometry with DNA staining to reveal the total amount of DNA. Approximately 5×10^5 of cells were incubated in various concentration of isochaihulactone for the indicated time. Cells were harvested by treating the cells with trypsin/EDTA. The cells were collected, washed with PBS, fixed with cold 70% ethanol overnight, and then stained with a solution containing […] PI, 10 mg/ml RNase A, and 0.1% Triton X-100 for 1 h in the dark. The cells will then pass through FACScan flow cytometer (equipped with a 488-nmargon laser) to measure the DNA content. The data was obtained and analyzed with CellQuest 3.0.1 (Becton Dickinson, Franklin Lakes, N.J.) and ModFitLT V2.0 software. The results are shown Table 4 and FIG. 4.
Assays were carried out to examine the effect of Z-K8 in inducing G2/M phase arrest and apoptosis in LNCaP cells. Briefly, the cells were treated with different concentrations of Z-K8 (ranging from 0.25 to 2 μM) for 24 h. The cell cycle analysis was done according to the method described above. As shown in FIG. 4 and Table 4, Z-K8 induced cell cycle G2/M arrest in LNCaP cells.

[6] = tested on: oral cancer cell line OECM-1; experiment: MTT growth inhibition assay, OECM-1; format: cell-based; settings: OECM-1, oral squamous cell carcinoma
Description: as §3, §4

[7] = tested on: caspase-3; experiment: Caspase-3 activity for apoptosis detection (Caspase-Glo); format: cell-based, human; settings: LNCaP cells, 24 h
Description: In General, drug can cause tumor apoptosis mediated activate caspase-3 leading to release fluoresce dye to detect by machine. Caspase-3 activity was measured using testis supernatants with the Caspase-Glo Assay System (Promega, Madison, Wis.) according to the manufacturer's instructions. Briefly, 50 μl of the Caspase-Glo buffer was added to 50 μl of tissue supernatants in a 96-well plate and incubated at room temperature for 60 minutes. Luminescence was measured using a Biotek synergy microplate reader (Biotek, Winooski, Vt.). Background activity levels, based on measurements in homogenization buffer only, were measured and subtracted from values in the testis tissue supernatants. All values were normalized to total protein content. Standard curves were used to determine the linearity of the responses.
Assays were carried out to examine whether K8 (Isochaihulactone) increases LNCaP cells caspase-3 activity which leads to tumor cell apoptosis. Briefly, LNCaP cells were treated with different concentrations of Z-K8 (0.25 to 4 μM) for 24 h. […] Thus, Z-K8 can be used in the treatment of prostate cancer.

[8] = tested on: PSA; experiment: RT-PCR analysis of PSA expression; format: cell-based; settings: human cancer cells, 0.5 μM to 2 μM, 24 h, dose-dependent (FIG. 3A)
Description: as §5, §6

COc1cc(/C=C2\C(=O)OCC2Cc2ccc3c(c2)OCO3)cc(OC)c1OC (racemic) [Z-K8, Racemic (Z)-β-(3′,4′-Methylenedioxybenzyl)-α-(3′,4′,5′-trimethoxybenzylidene)-γ-butyrolactone]
expression of cleaved caspase-3 in tumors (IHC) versus control [1]: increased more | IC50 [2]: 9.8 µM | AR expression over time (RT-PCR) ([3]; LNCaP cells, 1 μM, different times (FIG. 3B)): decreased AR expression in a time-dependent manner | AR expression (RT-PCR) ([3]; human cancer cells, 0.5 μM to 2 μM, 24 h, dose-dependent (FIG. 3A)): down regulated | expression of AR in tumors (IHC) versus control [4]: weaker | Cells in phase (%) G0/G1 ([5]; 0.25 μM): 63.56% | Cells in phase (%) G2/M ([5]; 0.25 μM): 18.35% | Cells in phase (%) S ([5]; 0.25 μM): 5.42% | Cells in phase (%) Sub-G1 ([5]; 0.25 μM): 0.48% | Cells in phase (%) G0/G1 ([5]; 0.5 μM): 48.30% | Cells in phase (%) G2/M ([5]; 0.5 μM): 24.99% | Cells in phase (%) S ([5]; 0.5 μM): 6.61% | Cells in phase (%) Sub-G1 ([5]; 0.5 μM): 3.24% | Cells in phase (%) G0/G1 ([5]; 1 μM): 57.27% | Cells in phase (%) G2/M ([5]; 1 μM): 10.16% | Cells in phase (%) S ([5]; 1 μM): 4.70% | Cells in phase (%) Sub-G1 ([5]; 1 μM): 8.19% | Cells in phase (%) G0/G1 ([5]; 2 μM): 22.25% | Cells in phase (%) G2/M ([5]; 2 μM): 43.92% | Cells in phase (%) S ([5]; 2 μM): 8.39% | Cells in phase (%) Sub-G1 ([5]; 2 μM): 5.73% | IC50 [6]: 1 µM | Caspase-3 Relative activity ([7]; 0.25 μM): 1.347 | Caspase-3 Relative activity ([7]; 0.5 μM): 1.274 | Caspase-3 Relative activity ([7]; 1 μM): 1.784 | Caspase-3 Relative activity ([7]; 2 μM): 2.399 | Caspase-3 Relative activity ([7]; 4 μM): 6.604 | PSA expression (RT-PCR) [8]: down regulated
